Reference: patent publication US7507727B2, “Substituted quinobenzoxazine analogs and methods of using thereof” (Cylene Pharmaceuticals, Inc., priority 2003, dated 2009)
pIC50: −log10 of the molar value. “Also recorded” adds a separate entry of the source.

Columns and labels:
[1] = test system: HCT-116 cells; assay: Annexin V-Alexa 488 staining; assay type: cell-based; conditions: 2 uM and 4 uM, 24 hr
Description: The following protocol was followed for this example. […] Incubate o/n or up to 24 hrs at 37° C. in CO2 incubator. […] Keep one or two untreated plates (medium only) as control plates. […] Harvest cells (collect attached as well as floating cells). Wash cells twice with cold PBS. Re-suspend cells in 1× Annexin binding buffer.
Count cells and dilute in 1× Annexin binding buffer to ˜1×10^6 cells/0.1 ml, preparing a sufficient volume to have 100 μl per assay. Add 5 μl of the Annexin V conjugate to each 100 μl of cell suspension. Add 4 μl of propidium iodide solution (stock=1 mg/ml) to each 100 μl of cell suspension. Incubate sample at RT for 15 minutes. Add 400 μl Annexin binding buffer, mix gently and keep samples on ice. Analyze stained cells immediately by flow cytometry.

[2] = test system: TGF-β quadruplex (TGFB3-81); assay: Direct interaction assay; assay type: binding
From the text: (§1) Direct Interaction Assay. Compounds may be evaluated for their ability to interact directly with nucleic acids capable of forming a quadruplex structure, wherein the nucleic acid is not a telomeric nucleic acid. The assay may be performed in the same or different vessels. For example, a compound may be contacted with each nucleic acid in the same vessel. Alternatively, a compound may be separately contacted with each of the nucleic acids tested in a different vessel. A telomeric nucleic acid as used herein represents a region of highly repetitive nucleic acid at the end of a chromosome. As used herein, a direct interaction is measured without the presence of a competitor nucleic acid.
(§2) An interaction between the compound and the nucleic acid may be determined for example, by measuring IC50 values, which are indicative of the binding and/or quadruplex stabilization. The selectivity of interactions may be determined, for example, by comparing measured IC50 values. For example, the-lowest IC50 values may be used to indicate a strong interaction between the compound and the nucleic acid, while highest IC50 values show a poor interaction; thus, showing selectivity of interaction. The reaction products were characterized by capillary electrophoresis.
(§3) Using a direct interaction assay, CX-3543 was screened for its ability to bind to and/or stabilize different types of quadruplexes. In this example, a 5′-fluorescent-labeled (FAM) primer (P45, 15 nM) is mixed with template DNA (15 nM) in a Tris-HCL buffer (15 mM Tris, pH 7.5) containing 10 mM MgCl2, 0.1 mM EDTA and 0.1 mM mixed deoxynucleotide triphosphates (dNTP's). The mixture is denatured at 95° C. for 5 minutes and, after cooling down to room temperature, is incubated at 37° C. for 15 minutes. After cooling down to room temperature, 1 mM KCl and the test compound at various concentrations are added, and the mixture incubated for 15 minutes at room temperature. The primer extension is performed by adding […] and Taq DNA Polymerase (2.5 U/reaction, Promega), and incubating at 70° C. for 20 minutes.

[3] = test system: Hum Tel quadruplex (Humtel-95); assay: Direct interaction assay; assay type: binding
From the text: as §1, §2, §3

[4] = test system: H-RAS quadruplex (HRAS-85); assay: Direct interaction assay; assay type: binding
From the text: as §1, §2, §3

[5] = test system: SRC quadruplex (SRC89); assay: Direct interaction assay; assay type: binding
From the text: as §1, §2, §3

[6] = test system: c-myc quadruplex (MYC99); assay: Direct interaction assay; assay type: binding
From the text: as §1, §2, §3

[7] = test system: BCl-2 quadruplex (BCL2-97); assay: Direct interaction assay; assay type: binding
From the text: as §1, §2, §3

[8] = test system: HMGA-2 quadruplex (HMGA-97); assay: Direct interaction assay; assay type: binding
From the text: as §1, §2, §3

[9] = test system: i-motif (IMOTIF99); assay: Direct interaction assay; assay type: binding
From the text: as §1, §2, §3

[10] = target: CYP3A4 (Homo sapiens, UniProt P08684); assay: Cytochrome P450 inhibition assay; assay type: in vitro ADME
CYP3A4, sequence (P08684 whole entry): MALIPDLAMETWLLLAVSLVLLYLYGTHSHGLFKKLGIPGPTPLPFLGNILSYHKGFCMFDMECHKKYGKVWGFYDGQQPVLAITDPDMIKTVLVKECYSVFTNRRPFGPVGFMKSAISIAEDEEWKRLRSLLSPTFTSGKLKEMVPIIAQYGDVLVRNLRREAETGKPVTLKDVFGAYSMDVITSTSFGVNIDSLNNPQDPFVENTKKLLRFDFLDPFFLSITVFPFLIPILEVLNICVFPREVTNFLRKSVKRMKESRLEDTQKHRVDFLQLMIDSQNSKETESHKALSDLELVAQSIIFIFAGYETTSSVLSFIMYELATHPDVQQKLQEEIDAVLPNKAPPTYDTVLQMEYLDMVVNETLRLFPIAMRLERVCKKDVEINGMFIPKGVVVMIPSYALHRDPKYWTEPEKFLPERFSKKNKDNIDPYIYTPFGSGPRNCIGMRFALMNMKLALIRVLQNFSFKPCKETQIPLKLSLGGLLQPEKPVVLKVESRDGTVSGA
Description: (§4) Cytochrome P450 (CYP450) Inhibition Assay. […] The reactions were initiated by adding 100 μL of a pre-warmed enzyme/substrate solution to the reaction tubes. A zero time-point control reaction was prepared by adding 50 μL of acetonitrile to 100 μL of cofactor solution to inactivate the enzymes, then adding 100 μL of enzyme/substrate solution. A control reaction with no inhibitor was also prepared. After a suitable incubation at 37° C., the reactions were terminated by the addition of 50 μL of acetonitrile. The reactions were analyzed for the metabolite forms of the probe substrate using LC/MS/MS. Each assay was performed in duplicate.

[11] = target: CYP1A2 (Homo sapiens, UniProt P05177); assay: Cytochrome P450 inhibition assay; assay type: in vitro ADME
CYP1A2, sequence (P05177 whole entry): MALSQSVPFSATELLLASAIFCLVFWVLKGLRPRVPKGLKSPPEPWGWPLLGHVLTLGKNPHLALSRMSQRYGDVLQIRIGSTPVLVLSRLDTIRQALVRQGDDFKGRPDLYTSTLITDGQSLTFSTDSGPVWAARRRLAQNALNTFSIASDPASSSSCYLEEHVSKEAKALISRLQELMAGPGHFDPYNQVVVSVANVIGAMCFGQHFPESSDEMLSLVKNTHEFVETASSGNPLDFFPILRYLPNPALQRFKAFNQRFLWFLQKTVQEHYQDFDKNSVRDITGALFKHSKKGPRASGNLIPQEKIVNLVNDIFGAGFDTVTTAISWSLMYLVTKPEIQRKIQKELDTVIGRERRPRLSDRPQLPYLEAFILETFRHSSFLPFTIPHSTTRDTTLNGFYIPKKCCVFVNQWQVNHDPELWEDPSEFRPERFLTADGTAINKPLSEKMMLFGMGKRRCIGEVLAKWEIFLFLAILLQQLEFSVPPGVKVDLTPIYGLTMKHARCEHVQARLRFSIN
Description: as §4

[12] = target: CYP2D6 (Homo sapiens, UniProt P10635); assay: Cytochrome P450 inhibition assay; assay type: in vitro ADME
CYP2D6, sequence (P10635 whole entry): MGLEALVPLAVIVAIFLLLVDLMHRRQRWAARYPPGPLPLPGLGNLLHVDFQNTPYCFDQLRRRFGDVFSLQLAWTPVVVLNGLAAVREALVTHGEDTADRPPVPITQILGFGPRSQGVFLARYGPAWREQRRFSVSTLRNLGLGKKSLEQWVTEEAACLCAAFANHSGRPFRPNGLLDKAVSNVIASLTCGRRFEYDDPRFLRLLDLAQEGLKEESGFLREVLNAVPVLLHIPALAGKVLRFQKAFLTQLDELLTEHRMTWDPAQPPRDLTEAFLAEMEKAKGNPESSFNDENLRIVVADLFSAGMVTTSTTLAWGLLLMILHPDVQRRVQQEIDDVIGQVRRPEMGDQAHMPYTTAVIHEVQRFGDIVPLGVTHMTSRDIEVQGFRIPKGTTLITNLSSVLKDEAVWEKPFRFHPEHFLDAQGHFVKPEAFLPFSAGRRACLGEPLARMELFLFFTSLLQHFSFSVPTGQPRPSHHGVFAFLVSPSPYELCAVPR
Description: as §4

[13] = target: CYP2C19 (Homo sapiens, UniProt P33261); assay: Cytochrome P450 inhibition assay; assay type: in vitro ADME
CYP2C19, sequence (P33261 whole entry): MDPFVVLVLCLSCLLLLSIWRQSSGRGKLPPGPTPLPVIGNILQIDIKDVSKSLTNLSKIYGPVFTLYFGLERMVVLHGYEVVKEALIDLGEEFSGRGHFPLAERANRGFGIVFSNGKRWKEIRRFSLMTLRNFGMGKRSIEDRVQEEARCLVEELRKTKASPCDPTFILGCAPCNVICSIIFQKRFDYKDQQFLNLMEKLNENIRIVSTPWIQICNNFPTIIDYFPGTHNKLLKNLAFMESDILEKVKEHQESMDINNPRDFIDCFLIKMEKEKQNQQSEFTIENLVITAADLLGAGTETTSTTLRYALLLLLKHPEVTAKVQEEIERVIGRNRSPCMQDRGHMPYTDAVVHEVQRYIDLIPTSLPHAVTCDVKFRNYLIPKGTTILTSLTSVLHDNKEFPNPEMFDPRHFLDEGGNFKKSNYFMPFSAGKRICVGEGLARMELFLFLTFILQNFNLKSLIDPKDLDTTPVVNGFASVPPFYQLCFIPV
Description: as §4

[14] = target: CYP2C9 (Homo sapiens, UniProt P11712); assay: Cytochrome P450 inhibition assay; assay type: in vitro ADME
CYP2C9, sequence (P11712 whole entry): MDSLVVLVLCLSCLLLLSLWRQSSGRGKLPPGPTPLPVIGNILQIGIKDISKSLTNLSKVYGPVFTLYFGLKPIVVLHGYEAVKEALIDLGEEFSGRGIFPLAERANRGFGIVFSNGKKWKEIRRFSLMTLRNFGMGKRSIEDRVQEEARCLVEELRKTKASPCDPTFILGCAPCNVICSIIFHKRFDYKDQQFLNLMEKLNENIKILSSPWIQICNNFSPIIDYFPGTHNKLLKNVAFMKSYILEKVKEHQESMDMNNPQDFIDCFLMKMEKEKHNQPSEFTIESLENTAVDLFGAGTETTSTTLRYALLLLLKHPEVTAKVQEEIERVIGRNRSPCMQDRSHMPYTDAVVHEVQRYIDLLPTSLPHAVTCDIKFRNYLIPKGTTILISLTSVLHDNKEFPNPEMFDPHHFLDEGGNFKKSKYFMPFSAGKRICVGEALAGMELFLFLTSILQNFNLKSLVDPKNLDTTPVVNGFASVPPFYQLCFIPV
Description: as §4

[15] = test system: HCT-116 xenograft; assay: HCT-116 colorectal cancer xenograft model; assay type: in vivo; conditions: HCT-116; 10, 15 and 20 mg/kg; FIG. 8
Description: Two xenograft models for inoculation were harvested and diluted to a concentration of 50×10^6 cells/ml or 100×10^6 cells/ml. Four to six week old nude mice were injected with 0.1 ml of the cell suspension containing between 5×10^6 and 10×10^6 cells. When tumors are of a suitable size compound dosing is commenced. Tumor sizes are measured throughout the treatment period with calipers and body weights also measured.
CX-3543 was tested against a number of cancer xenograft models to determine the in vivo efficacy. HCT-116 and PC-3 tumor-bearing nu/nu or MiaPaCa tumor-bearing SCID mice were administered reference and testing compounds on schedules indicated in figure legends. Tumor measurements were taken with calipers every other day or twice a week starting from the first day of dosing and body weights were measured at the same time points. Tumor volumes were calculated from the standard formula, W^2×L/2. c-MYC mRNA expression was measured with QPCR from all tumor samples following the final dose. 18S ribosomal RNA was used as a housekeeper and also quantified with QPCR.

In the case of CN1CCCC1CCNC(=O)c1cn2c3c(c(N4CCC(c5cnccn5)C4)c(F)cc3c1=O)Oc1cc3ccccc3cc1-2 (stereo not drawn) [CX-3543], the “staining by a dye positive for Annexin V externalization” value [1] was “significant increased staining”, the interaction with quadruplex ([2]; TGF-β, propeller quadruplex) was “strongly” and the pIC50 ([2]; insert TGF-β) was 5.89. The interaction with quadruplex ([3]; Hum Tel, chair-eller / basket quadruplex) was “less strongly”, the pIC50 ([3]; insert HumTel) was 5.48 and the interaction with quadruplex ([4]; H-RAS, propeller quadruplex) was “strongly”. For the same compound, the pIC50 ([4]; insert H-RAS) was 5.96, the interaction with quadruplex ([5]; SRC, heptad-tetrad) was “weakly” and the pIC50 ([5]; insert SRC) was < 5.00. For the same compound, the interaction with quadruplex ([6]; c-myc, propeller quadruplex) was “strongly”, the pIC50 ([6]; insert c-MYC) was 6.22 and the interaction with quadruplex ([7]; BCl-2, chair-eller / basket quadruplex) was “less strongly”. The pIC50 ([7]; insert BCL-2) was 5.70, the interaction with quadruplex ([8]; HMGA-2, heptad-tetrad) was “weakly” and the pIC50 ([8]; insert HMGA) was < 5.00. For the same compound, the interaction with quadruplex ([9]; i-motif) was “weakly”, the pIC50 ([9]; insert I-Motif) was < 5.00 and the “range in which only minor and partial inhibition of CYP3A4 was evident” value [10] was 1 to 3 µM. For the same compound, the pIC50 ([10]; isoform 3A4, substrate Midazolam) was 5.85, the pIC50 ([10]; isoform 3A4, substrate Testosterone) was 5.48 and the “inhibition of CYP1A2” value [11] was “No significant inhibition”. The “inhibition of CYP2D6” value [12] was “No significant inhibition”, the pIC50 ([12]; isoform 2D6, substrate Dextromethorphan) was < 4.60 and the “inhibition of CYP2C19” value [13] was “No significant inhibition”. For the same compound, the “inhibition of CYP2C9” value [14] was “No significant inhibition”, the pIC50 ([14]; isoform 2C9, substrate Diclofenac) was < 5.00 and the tumor growth inhibition [15] was “inhibits tumor growth; also recorded: significant tumor growth inhibition”.
